Test results: patent US11932598B2, “Polyacyloxymethyl-4,4′-acyloxybiphenyl compound” (HONSHU CHEMICAL INDUSTRY CO., LTD., priority 2018, dated 2024)

Tests used:
[1] = Solvent solubility evaluation test (amount dissolved in 100 g of cyclohexanone); format: physicochemical
Description: <Solvent Solubility Evaluation Test>
The 4,4′-Diacetoxy-3,3′,5,5′-tetra(acetoxymethyl)biphenyl obtained in Example 1 (hereinafter referred to as “Present Compound A”) and 4,4′-di(acetoxy)biphenyl (hereinafter referred to as “Comparative Compound a”) were measured for the amounts dissolved in 100 g of cyclohexanone at 40° C. and 60° C. (hereinunder referred to as “solubility (g)”).

[2] = amount dissolved in 100 g of cyclohexanone at 40° C.
[3] = amount dissolved in 100 g of cyclohexanone at 60° C.

| Compound | Solubility [1, 2] [g] | Solubility [1, 3] [g] | melting point [°C] |
| --- | --- | --- | --- |
| CC(=O)Oc1ccc(-c2ccc(OC(C)=O)cc2)cc1 [Comparative Compound a, 4,4′-di(acetoxy)biphenyl, reference compound] | 9.0 | 12.8 |  |
| CC(=O)OCc1cc(-c2cc(COC(C)=O)c(OC(C)=O)c(COC(C)=O)c2)cc(COC(C)=O)c1OC(C)=O [Present Compound A, 4,4′-Diacetoxy-3,3′,5,5′-tetra(acetoxymethyl)biphenyl] | 39.4 | 89.8 | 116.2 |
